# According to patent US20040166099A1, “Molecules preferentially associated with effector T cells and methods of their use” (TolerRx, Inc., priority 2002, published 2004):
# “Also recorded” adds a separate entry of the source.
# Key:
# Format in all cases: cell-based, human
# Th2 cells = experiment: Proliferation (3H-thymidine incorporation) of differentiated Th2 cells stimulated with CD3 and CD28
# Source text: (§1) FIG. 4 depicts inhibition of proliferation of Th1 and Th2 cells, but not regulatory T cells, by Rottlerin, a commercially available inhibitor of PKC enzymes. Differentiated cells were stimulated with CD3 and CD28 in the presence of absence of the PKC inhibitor Rottlerin. Incorporation of ^3H-thymidine was used to monitor cell proliferation. Proliferation of each cell type is normalized to the proliferation observed in the absence of inhibitor.
# (§2) Differentiated cell lines were produced from cells prepared from human cord blood or peripheral blood CD4+CD45RA+naïve T cells by a variety of methods, including flow cytometry and magnetic bead separations. Purity of the starting populations was >95%. Cells were then stimulated by CD3 and CD28 antibodies in RPMI 1640 with 10% FCS and 1% Human AB serum with defined mixtures of cytokines and neutralizing antibodies to cytokines to produce the differentiated cell types. Th1 cells were produced by culture with IL12 (62 U/ml) and anti-IL4 (0.2 ug/ml); Th2 cells were produced by culture in IL4(145 U/ml) and anti-IL12 (10 ug/ml) and anti-IFNγ (10 ug/ml); and regulatory T cells were produced by culture in TGFβ (32 U/ml), IL9 (42 U/ml), anti-IL4 (10 ug/ml) and anti-IL12 (10 ug/ml) and anti-IFNγ(10 ug/ml). (Note: anti-IL12 was not used in all experiments). All cultures were supplemented with IL2 (65 U/ml) and IL15 (4500 U/ml). Cells were split into larger culture dishes as warranted by cell division. At the conclusion of one round of cell differentiation (7-12 days), cells were harvested for preparation of total RNA for use in the gene chip experiments.
# (§3) Differentiated cells, prepared as above, were re-stimulated using CD3 and CD28 in the presence of a range of concentrations of the commercial inhibitor Rottlerin.
# (§4) Three days after initiation of the cultures, three replicate tissue culture wells for each condition for each cell type were fed with media containing ^3H-thymidine to monitor cell division. Wells were harvested 18 hr later and incorporated ^3H was measured by scintillation counting.
# Th1 cells = experiment: Proliferation (3H-thymidine incorporation) of differentiated Th1 cells stimulated with CD3 and CD28
# Source text: as §1, §2, §3, §4
# [1] = test system: regulatory T cells (TGFβ-derived Treg cells); experiment: Proliferation (3H-thymidine incorporation) of differentiated regulatory T cells stimulated with CD3 and CD28
# Source text: as §1
# Differentiated cell lines were produced from cells prepared from human cord blood or peripheral blood CD4+CD45RA+naïve T cells by a variety of methods, including flow cytometry and magnetic bead separations. Purity of the starting populations was >95%. Cells were then stimulated by CD3 and CD28 antibodies in RPMI 1640 with 10% FCS and 1% Human AB serum with defined mixtures of cytokines and neutralizing antibodies to cytokines to produce the differentiated cell types. […]
# as §4
# [2] = FIG. 5 legend, representative data
# [3] = wells coated with CD3 and CD28, 3H-thymidine fed at day 3, harvested 18 hr later, increasing concentrations of inhibitor, FIG. 5
Molecule,"inhibition of cell division / proliferation of Th2 cells (Th2 cells; Th2 cells re-stimulated using CD3 and CD28, 5 uM, three of three experiments, FIG. 4)","inhibition of cell division / proliferation of Th1 cells (Th1 cells; Th1 cells re-stimulated using CD3 and CD28, 5 uM, three of three experiments, FIG. 4)","inhibition of proliferation of regulatory T cells ([1]; regulatory T cells re-stimulated using CD3 and CD28, range of concentrations, three of three experiments, FIG. 4)",inhibition of proliferation of Th2 cells (in words) (Th2 cells; [2]),proliferation of Th2 cells relative to control (Th2 cells; [3]),inhibition of proliferation of Th1 cells (in words) (Th1 cells; [2]),proliferation of Th1 cells relative to control (Th1 cells; [3]),"inhibition of proliferation of TGFβ-derived Treg cells (in words) [1, 2]"
CC(=O)c1c(O)c(C)c(O)c(Cc2c(O)c3c(c(C(=O)/C=C/c4ccccc4)c2O)OC(C)(C)C=C3)c1O [Rottlerin],inhibition; also recorded: inhibited,inhibition; also recorded: inhibited,not and did not inhibit,,,,,
NH2-RQIKIWFQNRRMKWKKMDQNMFRNFSFNMP-COOH (H-RQIKIWFQNRRMKWKKMDQNMFRNFSFNMP-OH) [antennapedia-PKCθ peptide],,,,selectively inhibits,16 % of control levels,selectively inhibits,16 % of control levels,not
